Several values for one entry are separate records, joined by “and”; a condition that tells them apart may be missing. Identical values can stand only once.
Legend:
Format in all cases: in vivo, mouse
[1] = test system: pAcH3; test: Striatal pAcH3 immunofluorescence 1 h after single injection; conditions: single injection 20 mg/kg i.p., individual mice
Procedure: (§1) Immunofluorescence was performed as described in Papale et al ([2016]). Briefly, 1 h after blocking in 5% normal goat serum, slices were incubated overnight at 4°C with the following primary antibodies: anti‐phospho (Ser10)‐acetylated (Lys14) histone H3 (1:1,000, Millipore), anti‐phospho‐S6 ribosomal protein (Ser235/236) (1:200, Cell Signaling Technology) anti‐phospho‐S6 ribosomal protein (Ser240/244) (1:200, Cell Signaling), cleaved caspase‐3 (1:200, Cell Signaling Technology), anti‐mutant Huntingtin (1:100, Developmental Studies Hybridoma Bank, University of Iowa, #MW8), and NeuN (1:1,000, Millipore). Corresponding secondary antibodies (Alexa Fluor 546 conjugated anti‐mouse (1:200, Thermo Fisher Scientific), Alexa Fluor 488 conjugated anti‐rabbit (1:500, Thermo Fisher Scientific) and Pacific Blue goat anti‐mouse (1:200, Thermo Fisher Scientific) were incubated at room temperature for 1 h. Sections stained for mutant Huntingtin were incubated with DAPI for 20 min. Sections were subsequently mounted with fluorescent mounting medium (DAKO). Single and double‐labeled images ([…]) were obtained at 40× magnification from the striatum using a laser scanning confocal microscope (Leica SP2) equipped with the corresponding lasers and appropriate filter sets to avoid the crosstalk between the fluorochromes.
(§2) In ex‐vivo and in‐vivo immunofluorescence experiments, the number of p‐S6 or p‐AcH3 immunoreactive neurons among NeuN‐positive neurons was counted in 2–3 consecutive striatal sections per mouse in four fields per section. Caspase 3‐positive cells were quantified among NeuN‐positive neurons in each slide and expressed as percentage (ratio between caspase‐3‐positive cells and total NeuN‐positive neurons) for each field acquired through the slide. The number of cells showing mutant Huntingtin inclusions were expressed as a percentage of mutant Huntingtin‐positive cells among DAPI‐positive cells.

[2] = test system: S6 (Ser235/236) phosphorylation; test: Striatal pS6 (Ser235/236) immunofluorescence 1 h after single injection; conditions: single injection 20 mg/kg i.p., individual mice
Procedure: as §1, §2

[3] = test system: cleaved caspase-3; test: Cleaved caspase-3 in striatum of HdhQ111/+ mice treated with RB5; conditions: for cleaved caspase-3 in striatum (Fig 5 panel c): individual animals
Procedure: as §1, §2

[4] = test system: tyrosine hydroxylase (TH) positive cells of the SNc; test: TH-positive cells in SNc, MPTP model
Procedure: Immunohistochemistry was performed as described in Papale et al ([2016]). […]
(§3) For in vivo immunohistochemistry experiments, images were acquired from the dorsal striatum using a Leica DM IRB microscope under a 20× objective. The number of p‐ERK, p‐MSK‐1, p‐ELK, p‐MEK‐1, p‐VG K+, c‐Fos, and DARPP‐32 positive cells was counted in 2–3 consecutive sections per mouse, bilaterally and averaged across the sections using the ImageJ software by a blind investigator to the condition. Estimation of nigral cell loss was assessed by quantifying the number of TH‐immunopositive neurons of the SNc in 360 μm‐spaced sections for each animal. […]
Immuno‐labeled sections were visualized under a Leica DM/RBE light microscope and an Olympus BX50 light microscope with Visiopharm Integrator System software (version 4.4.6.9). TH‐positive cells were counted at 200‐μm intervals. The total number of cells (C) for each animal was calculated using the following formula: C = ∑c × (∑A/∑a) × f, where c is the number of cells in each sampling frame, A is the inclusion area for each section, a is the area of the sampling frame for each animal, and f is the frequency of sectioning.

[5] = test system: cleaved caspase-3; test: Cleaved caspase-3 in SN, MPTP model
Text: as §2
1‐methyl‐4‐phenyl‐1,2,3,6‐tetrahydropyridine‐hydrochloride (MPTP‐HCl, Sigma, Italy) was dissolved in saline and administered i.p. once daily at a dose of 20 mg/kg for 4 days. RB5 (20 mg/kg i.p.) was injected daily 30 min before MPTP.

[6] = test system: cleaved caspase-3; test: Cleaved caspase-3 in dentate gyrus of Tg2576 mice; conditions: for cleaved caspase-3 in dentate gyrus (Fig 5 panel l): individual animals
[7] = test system: pERK1/2; test: pERK1/2 in striatum of zQ175 females after RB5; conditions: zQ175 females and WT controls, RB5 for 9 days
Procedure: Immunohistochemistry was performed as described in Papale et al ([2016]). Briefly, 1 h after blocking in 5% normal goat serum and 0.1% Triton X‐100 solution, free‐floating sections were incubated overnight at 4°C with one of the following primary antibodies: anti‐phospho‐p44/42 MAP kinase (Thr202/Tyr204) (1:200, Cell Signaling Technology #9101), anti‐phospho–Elk‐1 (Ser383) (1:100, Cell Signaling #9181), anti‐phospho‐Kv4.2 (Thr607)‐R (1:100, Santa Cruz sc22254‐R), anti‐phospho‐MSK‐1 (1:100 Cell Signaling Technology #9595), anti‐phospho‐MEK1/2 (Ser218/222) (1:100, sc‐7995 Santa Cruz Biotechnology), c‐Fos (1:100, sc‐52 Santa Cruz Biotechnology), tyrosine Hydroxylase (monoclonal 1:1,000, Sigma Aldrich, Italy) and anti‐DARPP‐32 (H3) (1:100, Santa Cruz Biotechnology, #sc‐271111) overnight at 4°C. […]
as §3

[8] = test system: cleaved caspase-3; test: Cleaved caspase-3 in striatum of zQ175 females after RB5; conditions: RB5 for 9 days
Procedure: Immunofluorescence was performed as described in Papale et al ([2016]). Briefly, 1 h after blocking in 5% normal goat serum, slices were incubated overnight at 4°C with the following primary antibodies: anti‐phospho (Ser10)‐acetylated (Lys14) histone H3 (1:1,000, Millipore), anti‐phospho‐S6 ribosomal protein (Ser235/236) (1:200, Cell Signaling Technology) anti‐phospho‐S6 ribosomal protein (Ser240/244) (1:200, Cell Signaling), cleaved caspase‐3 (1:200, Cell Signaling Technology), anti‐mutant Huntingtin (1:100, Developmental Studies Hybridoma Bank, University of Iowa, #MW8), and NeuN (1:1,000, Millipore). […]
as §2, with “cells. […]” for “cells.”

[9] = MPTP 20 mg/kg i.p. and RB5 20 mg/kg i.p. for 4 days

Sequence: GRKKRRQRRRPPQGGGGGEPRRTEGVGPGVPGEVEMVKGQPFDV [RB5, six D-amino acids, acetylated N-terminus]
- pAcH3 positive neurons in striatum ([1]; ERK1+/+ (WT) mice): enhanced pERK and pAcH3 in WT
- pAcH3 positive neurons in striatum ([1]; ERK1-/- mice): not in ERK1 KO mice
- pAcH3 positive neurons in striatum ([1]; 1 h): selectively activated
- pS6 (Ser235/236) positive neurons in striatum ([2]; ERK1+/+ (WT) mice): comparable in both genotypes
- pS6 (Ser235/236) positive neurons in striatum ([2]; ERK1-/- mice): comparable in both genotypes
- pS6 (Ser235/236) positive neurons in striatum ([2]; 1 h): slightly reduced
- Striatal neuronal degeneration (cleaved caspase-3) ([3]; 10 month-old HdhQ111/+ mice, 20 mg/kg i.p. for 8 days): attenuated striatal neuronal degeneration
- cleaved caspase-3 in striatum (Fig 5 panel c) ([3]; HdhQ111/+ mice): 2.0154 and 1.547 and 0.5041 and 1.332 and 1.4192
- cleaved caspase-3 in striatum (Fig 5 panel c) ([3]; WT mice): 1.055 and 1.796 and 1.192 and 0.7349 and 0.4238
- Tyrosine hydroxylase (TH) loss in SNc [4, 9]: prevented tyrosine hydroxylase (TH) loss
- TH-positive cells in SNc (Fig 5 panel g) ([4]; MPTP model, individual animals): 3818.38 and 2495.7 and 4195.82 and 2081.4 and 2629.68 and 4880.04 and 2139.82 and 2203.06 and 3349.83 and 3862.19 and 2316.4 and 3288.79 and 3386.28
- Apoptotic cell death (cleaved caspase-3-positive cells) [5, 9]: counteracted apoptotic cell death
- cleaved caspase-3 in SN (Fig 5 panel h) ([5]; MPTP model, individual animals): 15.9941 and 14.3542 and 22.1236 and 12.1639 and 12.097 and 11.2152 and 20.664 and 29.614 and 13.0618 and 19.582 and 19.4193 and 16.215 and 16.8899 and 24.4755
- Preapoptotic phenotype measured by caspase-3 ([6]; Tg2576 mice, 7 months old, 20 mg/kg i.p. for 7 days): significantly reduced the preapoptotic phenotype
- cleaved caspase-3 in dentate gyrus (Fig 5 panel l) ([6]; Tg2576 mice): 0.77 and 0.91 and 0.62 and 1.34 and 0.79 and 1.19 and 1.3
- cleaved caspase-3 in dentate gyrus (Fig 5 panel l) ([6]; WT mice): 0.76 and 0.9 and 0.39 and 0.92 and 0.68 and 0.62 and 0.56 and 0.58 and 0.59
- pERK1/2 levels in striatum [7]: enhanced
- Preapoptotic marker caspase-3 in striatum [8]: very significant reduction
